Data published in paper PMC5933457, “Probing biological activity through structural modelling of ligand-receptor interactions of 2,4-disubstituted thiazole retinoids” (Bioorganic & Medicinal Chemistry, 2018).

Key:
[1] = tested on: TERA2.cl.SP12 stem cells; experiment: Real-time PCR for neuronal markers NeuroD1 and PAX6; assay type: cell-based, human; conditions: 10 μM, Fig. 7B; for induction of PAX6 expression, rank order: up to 7 days
Experimental: Second, NeuroD1 and PAX6 are retinoid-induced transcription factors involved in regulating neuronal differentiation,[49], [50] and are expressed in neurons derived from TERA2.cl.SP12 stem cells.
(§1) Real time PCR was carried out immediately after treatment on both cell line lysates with 0.25% trypsin–EDTA. TERA-2.cl.SP12 cells were seeded at a density of 1 × 10^6 cells per 25 cm^2 flask, 12–24 h before treatment. […] SH-SY5Y cells were seeded at a density of 1 × 10^6 cells per 25 cm^2 flask, 12–24 h before treatment. […] Commercial RNA extraction kits (Qiagen) and reverse transcription (Applied Biosystems) kits were purchased and procedures used according to the manufacturer instructions. Real time PCR was performed using the TaqMan® Universal PCR Master Mix (Life technologies) and TaqMan® gene expression system (Applied Biosystems) based on probe sets to the specific genes to be analysed. Genecodes used are as follows: RARβ (Hs00233407_m1), CYP26-A1 (Hs00175627_m1), RARα (Hs00940448_g1), RARγ (Hs01559234_m1), PAX-6 (Hs01088112_m1), NeuroD1 (Hs01922995_s1). GADPH (Hs02758991_g1) and ACTB (Hs99999903_m1) were used as internal control genes for TERA-2.cl.SP12 and SH-SY5Y, respectively.

[2] = tested on: RARβ; conditions: RARβ2 isoform; cited from earlier work
[3] = tested on: SH-SY5Y human neuroblastoma cells; experiment: Retinoid-induced gene expression (RARα, RARβ, RARγ, CYP26A1) by real-time PCR; assay type: cell-based; conditions: for induction of RARα and RARγ expression: 10 μM retinoid, over a 12 h period, Fig. 8A; for induction of RARβ expression, rank order / induction of CYP26A1 expression, rank order: dose-response 1 nM to 1 μM, 8 h treatment, Fig. 8B; for induction of RARβ expression, rank order: all doses; for induction of CYP26A1 expression, rank order: doses <1 μM
Experimental: As an additional assay of biological activity, short-term changes in expression of four genes in SH-SY5Y cells was employed; a neuroblastoma-derived lineage that undergoes neuronal differentiation in response to retinoid treatment. The four genes assayed, RARα, RARβ, RARγ and CYP26A, have RAREs associated with their promoters and may be directly regulated by retinoids.[51], [52]
as §1

SMILES | NeuroD1 mRNA expression, rank order ([1]; after 5 days) | induction of PAX6 expression, rank order [1] | RAR-type selectivity [2] | time-course of RARβ and CYP26A1 induction ([3]; 10 μM retinoid treatment) | induction of RARα and RARγ expression [3] | induction of RARβ expression, rank order [3] | induction of CYP26A1 expression, rank order [3] | NeuroD1 mRNA expression, rank order ([1]; after 7 days)
CCOCCOc1nc(-c2ccc(C(=O)O)cc2)sc1C [GZ18] | GZ25 > GZ18 > ATRA | GZ25 ≫ ATRA > GZ18 | RARβ2-specific retinoid | less active in comparison to either GZ25 or ATRA | lower levels of induction | GZ25 ≫ ATRA > GZ18 | GZ25 > GZ18 > ATRA | 
Cc1sc(-c2ccc(C(=O)O)cc2)nc1-c1ccc2c(c1)C(C)(C)CCC2(C)C [GZ25] | GZ25 > GZ18 > ATRA | GZ25 ≫ ATRA > GZ18 |  |  | lower levels of induction | GZ25 ≫ ATRA > GZ18 | GZ25 > GZ18 > ATRA | ATRA > GZ25
